This is an account of results in article PMC6692071 (Journal of medicinal chemistry, 2018).

“Also recorded” adds a separate entry of the source. Bounds are passed on as bounds.

Series [1] deals with T1, human δ opioid receptor (Homo sapiens, UniProt P41143). The note with it: mean ± SEM; cited from earlier work.
In series [2] the target is T1, human δ opioid receptor. In words: biochemical.
For series [3] the following is noted: rat PK studies.
Another series addresses human κ opioid receptor (Homo sapiens, UniProt P41145). The note with it: mean ± SEM; cited from earlier work.

T1 sequence (P41143 whole entry): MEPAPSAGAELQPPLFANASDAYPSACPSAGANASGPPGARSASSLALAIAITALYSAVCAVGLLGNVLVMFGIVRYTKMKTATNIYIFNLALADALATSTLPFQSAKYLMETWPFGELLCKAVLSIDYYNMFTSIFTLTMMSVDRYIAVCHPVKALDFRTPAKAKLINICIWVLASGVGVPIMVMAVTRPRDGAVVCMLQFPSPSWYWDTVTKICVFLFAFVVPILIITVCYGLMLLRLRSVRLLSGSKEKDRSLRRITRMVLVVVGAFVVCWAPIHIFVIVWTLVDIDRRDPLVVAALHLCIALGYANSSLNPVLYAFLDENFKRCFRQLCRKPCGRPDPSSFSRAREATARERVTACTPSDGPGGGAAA
human κ opioid receptor, sequence (P41145 whole entry): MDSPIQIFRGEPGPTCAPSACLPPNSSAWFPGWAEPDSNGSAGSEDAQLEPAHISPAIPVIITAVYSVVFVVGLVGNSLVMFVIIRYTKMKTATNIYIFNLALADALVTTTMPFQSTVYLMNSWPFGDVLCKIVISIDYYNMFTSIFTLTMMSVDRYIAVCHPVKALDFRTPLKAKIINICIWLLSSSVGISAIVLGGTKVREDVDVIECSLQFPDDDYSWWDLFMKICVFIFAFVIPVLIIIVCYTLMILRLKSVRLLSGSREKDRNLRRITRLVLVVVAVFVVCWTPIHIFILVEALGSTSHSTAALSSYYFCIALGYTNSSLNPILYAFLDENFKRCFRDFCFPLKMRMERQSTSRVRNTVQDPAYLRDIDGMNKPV

Consider `CC1CCN(C[C@@H](NC(=O)[C@H]2Cc3ccc(O)cc3CN2)C(C)C)CC1` [4-MePDTic (43)], for which the “Ke δ, DPDPE” value at human δ opioid receptor [1] is reported as over 3000 nM.

In the case of `CC(C)[C@@H](CC1CCCCC1)NC(=O)[C@H]1Cc2ccc(O)cc2CN1` [Compound 1], at human δ opioid receptor [1], the “Ke δ, DPDPE” value is listed as 640 ± 170 nM. Take `CC(C)[C@@H](CC1CCCCC1)NC(=O)[C@@H]1Cc2ccc(O)cc2CN1` [Compound 3, (3S)-N-[(1R)-1-(Cyclohexylmethyl)-2-methylpropyl]-7-hy-droxy-1,2,3,4-tetrahydroisoquinoline-3-carboxamide]: at human δ opioid receptor [2], the Kb is over 3 µM. The same measure, in the same setting: to `CC(C)[C@H](CC1CCCCC1)NC(=O)[C@H]1Cc2ccc(O)cc2CN1` [Compound 4, (3R)-N-[(1S)-1-(Cyclohexylmethyl)-2-methylpropyl]-7-hydroxy-1,2,3,4-tetrahydroisoquinoline-3-carboxamide] belongs over 3 µM; to `CC(C)[C@H](CC1CCCCC1)NC(=O)[C@@H]1Cc2ccc(O)cc2CN1` [Compound 5, (3S)-N-[(1S)-1-(Cyclohexylmethyl)-2-methylpropyl]-7-hydroxy-1,2,3,4-tetrahydroisoquinoline-3-carboxamide], over 3 µM. On to `CC(C)[C@@H](CC1CCCCC1)NC(=O)[C@H]1Cc2ccc(C(N)=O)cc2CN1` [Compound 9, (3R)-N^3-[(1R)-1-(Cyclohexylmethyl)-2-methylpropyl]-1,2,3,4-tetrahydroisoquinoline-3,7-dicarboxamide], for which the brain penetration result in series [3] is “brain penetration”. Still for that read-out and setting: for `CC(C)[C@@H](CC1CCCC1)NC(=O)[C@H]1Cc2ccc(O)cc2CN1` [Compound 13, (3R)-N-[(1R)-1-(Cyclopentylmethyl)-2-methylpropyl]-7-hydroxy-1,2,3,4-tetrahydroisoquinoline-3-carboxamide] the value was “brain penetration; also recorded: crossed the blood–brain barrier; also recorded: penetrate the brain”. As to `CC(C)[C@@H](CN1CCCCC1)NC(=O)[C@H]1Cc2ccc(O)cc2CN1` [Compound 42, (3R)-7-hydroxy-N-[(1S)-2-methyl-1-(piperidin-1-ylmethyl)propyl]-1,2,3,4-tetrahydroisoquinoline-3-carboxamide], the “Ke δ, DPDPE” value at human δ opioid receptor [1] is over 3000 nM. Regarding `CC(C)[C@@H](CN1CC[C@@](C)(c2cccc(O)c2)[C@@H](C)C1)NC(=O)[C@H]1Cc2ccc(O)cc2CN1` [JDTic, (3R)-1,2,3,4-tetrahydro-7-hydroxy-N-[(1S)-1-[[(3R,4R)-4-(3-hydroxy-phenyl)-3,4-dimethyl-1-piperidinyl]methyl]-2-methylpropyl]-3-iso-quinolinecarboxamide], the “Ke κ, U69,593” value on human κ opioid receptor was 0.02 ± 0.01 nM.
